Patent US10106526B2, “Inhibitors of cyclin-dependent kinase 7 (CDK7)” (SYROS PHARMACEUTICALS, INC., priority 2014, dated 2018)

Columns and labels:
[1] = target: CDK7/Cyclin H/MAT1 trimeric complex (Homo sapiens, UniProt P50613); assay: CDK7 kinase assay, Caliper/LabChip EZ Reader (Biortus Biosciences); assay type: biochemical; conditions: CDK7/Cyclin H/MAT1 10 nM, ATP 2 mM, FAM-CDK7tide 2 μM, 30 min incubation, read-out: CDK7 Inhibition (IC50)
Procedure: Compounds of the invention were further assayed for CDK7 activity at Biortus Biosciences (Jiangyin, Jiangsu Province, P.R. of China) using a CDK7 kinase assay developed with a Caliper/LabChip EZ Reader (Perkin Elmer, Waltham, Mass.). […] The incubation period was chosen such that the total fraction of phosphorylated peptide product produced was <20% for the uninhibited kinase.

CDK7 = target: T1, CDK7 (Homo sapiens, UniProt P50613); assay: CDK7 kinase activity, Adapta kinase assay (Life Technologies); assay type: biochemical; conditions: Adapta kinase assay at Life Technologies; 10 μM down to 0.514 nM, 3-fold serial dilutions; read-out: CDK7 Inhibition (IC50)
T1 construct: purchased Life Technologies (Adapta kinase assay service)
Outline: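 Adapta kinase activity assay run as a commercial service; substrates not specified here. Compounds tested in 3-fold serial dilutions from 10 μM down to 0.514 nM.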

A673 cells = assay: Inhibition of proliferation of A673 cells (CyQUANT, 72 hour); assay type: cell-based, human; conditions: 72 hour proliferation
Outline: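 Human Ewing's sarcoma A673 cells in DMEM + 10% FBS + 1 mM sodium pyruvate, 37 °C, 5% CO2, exposed to compounds from 4 μM to 126.4 pM (0.5 log dilutions) for 72 h. Proliferation read by CyQUANT; IC50 reported as binned categories.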

Jurkat cells = assay: Inhibition of proliferation of Jurkat cells (CellTiter-Glo, 72 hour); assay type: cell-based, human; conditions: 10 μM to 316 pM
Outline: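 Human T-cell leukemia Jurkat cells in RPMI 1640 with 10% FBS were exposed 72 h at 37 °C, 5% CO2 to compounds from 10 μM to 316 pM in 0.5-log steps. Anti-proliferative effect measured by CellTiter-Glo; IC50 reported in binned categories.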

T1 sequence (P50613 whole entry): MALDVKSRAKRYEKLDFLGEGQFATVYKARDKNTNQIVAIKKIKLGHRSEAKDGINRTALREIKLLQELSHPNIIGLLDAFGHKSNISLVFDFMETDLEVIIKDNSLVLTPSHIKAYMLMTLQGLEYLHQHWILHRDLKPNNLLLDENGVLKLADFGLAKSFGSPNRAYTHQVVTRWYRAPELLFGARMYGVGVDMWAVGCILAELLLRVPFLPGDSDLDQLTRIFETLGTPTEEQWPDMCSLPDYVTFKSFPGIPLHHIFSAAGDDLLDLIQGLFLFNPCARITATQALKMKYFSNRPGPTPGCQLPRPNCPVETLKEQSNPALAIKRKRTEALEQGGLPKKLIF
T1 sequence (P51946 whole entry partner): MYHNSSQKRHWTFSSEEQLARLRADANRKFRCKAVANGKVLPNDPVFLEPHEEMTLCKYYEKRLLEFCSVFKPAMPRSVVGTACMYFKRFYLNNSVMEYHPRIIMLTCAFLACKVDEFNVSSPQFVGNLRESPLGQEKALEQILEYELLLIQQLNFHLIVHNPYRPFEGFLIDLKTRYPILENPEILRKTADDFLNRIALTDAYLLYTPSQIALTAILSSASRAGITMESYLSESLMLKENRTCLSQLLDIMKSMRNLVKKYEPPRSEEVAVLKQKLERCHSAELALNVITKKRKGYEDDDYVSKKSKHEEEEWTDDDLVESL
T1 sequence (P51948 whole entry partner): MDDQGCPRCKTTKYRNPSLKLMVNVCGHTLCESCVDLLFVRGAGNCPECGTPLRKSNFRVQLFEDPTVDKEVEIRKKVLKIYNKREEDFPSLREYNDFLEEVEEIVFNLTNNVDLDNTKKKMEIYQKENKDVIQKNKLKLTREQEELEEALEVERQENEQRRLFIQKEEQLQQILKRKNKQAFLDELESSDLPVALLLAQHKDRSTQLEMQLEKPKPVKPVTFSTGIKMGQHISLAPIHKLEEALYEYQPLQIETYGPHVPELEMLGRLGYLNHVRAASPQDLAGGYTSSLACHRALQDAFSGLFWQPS
CDK7/Cyclin H/MAT1 trimeric complex, sequence (P50613 whole entry): as the sequence (P50613 whole entry) above
CDK7/Cyclin H/MAT1 trimeric complex, sequence (P51946 whole entry partner): as the sequence (P51946 whole entry partner) above
CDK7/Cyclin H/MAT1 trimeric complex, sequence (P51948 whole entry partner): as the sequence (P51948 whole entry partner) above

Compound	IC50 [1] [nM]	IC50 (CDK7) [nM]	IC50 (A673 cells; Homo sapiens) [nM]	IC50 (Jurkat cells; Homo sapiens) [nM]	IC50 (Jurkat cells) [nM]	IC50 (A673 cells) [nM]
CN(C)CC=CC(=O)N1CC(N(C)C2CCCC(Nc3ncc(Cl)c(-c4c[nH]c5ccccc45)n3)C2)C1 (centres unmarked) [Compound 231]	< 100	< 100	–	–	–	–
C=CC(=O)N1CC(F)(F)C[C@H]1C(=O)N[C@H]1CCC[C@@H](Nc2ncc(Cl)c(-c3c[nH]c4ccccc34)n2)C1 [Compound 116, (S)-1-acryloyl-N-((1S,3R)-3-(5-chloro-4-(1H-indol-3-yl)pyrimidin-2-ylamino)cyclohexyl)-4,4-difluoropyrrolidine-2-carboxamide]	< 100	< 100	< 500	–	–	–
C=CC(=O)N1CC(N(C)[C@H]2CCC[C@@H](Nc3ncc(Cl)c(-c4c[nH]c5ccccc45)n3)C2)C1 [Compound 224]	< 100	< 100	–	> 5000	–	–
C=CC(=O)N1CCC(NC[C@H]2CCC[C@@H](Nc3ncc(Cl)c(-c4c[nH]c5ccccc45)n3)C2)CC1 [Compound 127, 1-[4-[[(1S,3R)-3-[[5-chloro-4-(1H-indol-3-yl)pyrimidin-2-yl]amino]cyclohexyl]methylamino]-1-piperidyl]prop-2-en-1-One]	< 100	< 100	< 500	> 5000	–	–
4-trans-acrylamido-N-((1S,3R)-3-(5-chloro-4-(1H-indol-3-yl)pyrimidin-2-ylamino)cyclohexyl)cyclohexanecarboxamide [Compound 117]	< 100	< 100	–	–	< 500	< 500
CN(C)C/C=C/C(=O)N1CCC(C(=O)N2CC[C@@H](Nc3ncc(Cl)c(-c4c[nH]c5ccccc45)n3)C2)CC1 [Compound 213, (E)-1-[4-[(3R)-3-[[5-chloro-4-(1H-indol-3-yl)pyrimidin-2-yl]amino]pyrrolidine-1-carbonyl]-1-piperidyl]-4-(dimethylamino)but-2-en-1-One]	< 100	< 100	< 500	> 5000	–	–
C=CC(=O)N1CCC[C@@H]1C(=O)N[C@H]1CCC[C@@H](Nc2ncc(Cl)c(-c3c[nH]c4ccccc34)n2)C1 [Compound 173, (R)-1-acryloyl-N-((1S,3R)-3-(5-chloro-4-(1H-indol-3-yl)pyrimidin-2-ylamino)cyclohexyl)pyrrolidine-2-carboxamide]	< 100	< 100	–	500 to 5000	–	–
CN(C)C/C=C/C(=O)Nc1ccc(C(=O)N[C@H]2CCC[C@@H](Nc3ncc(Cl)c(-c4c[nH]c5ccccc45)n3)C2)nc1 [Compound 106, N-((1S,3R)-3-(5-chloro-4-(1H-indol-3-yl)pyrimidin-2-ylamino)cyclohexyl)-5-((E)-4-(dimethylamino)but-2-enamido)picolinamide]	< 100	< 100	< 500	–	–	–
C=CC(=O)N1CCN(CC2(O)CCC[C@@H](Nc3ncc(Cl)c(-c4c[nH]c5ccccc45)n3)C2)CC1 (single isomer, unassigned) [Compound 188]	< 100	–	–	–	< 500	< 500
O=C(NC1CCCC(Nc2ncc(Cl)c(-c3cnn4ccccc34)n2)C1)C1CCN(C(=O)C=CCN2CCN(C3CC3)CC2)CC1 (centres unmarked) [Compound 223]	< 100	< 100	–	–	> 5000	–
C=CC(=O)N1CCN(C2CCCC(Nc3ncc(Cl)c(-c4c[nH]c5ccccc45)n3)C2)CC1C (centres unmarked) [Compound 229]	< 100	< 100	–	–	500 to 5000	< 500
C=CC(=O)N1CCC(C(=O)N[C@H]2CCC[C@@H](Nc3ncc(Cl)c(-c4c[nH]c5ccccc45)n3)C2)CC1 [Compound 118, 1-acryloyl-N-((1S,3R)-3-(5-chloro-4-(1H-indol-3-yl)pyrimidin-2-ylamino)cyclohexyl)piperidine-4-carboxamide]	< 100	< 100	< 500	< 500	–	–
C=CC(=O)N1CCN(C2CCCC(Nc3ncc(Cl)c(-c4c[nH]c5ccccc45)n3)C2)CC1C (centres unmarked) [Compound 232]	< 100	< 100	–	–	< 500	< 500
CN(C)C/C=C/C(=O)N1CCC(O)(CN(C)[C@H]2CCC[C@@H](Nc3ncc(Cl)c(-c4c[nH]c5ccccc45)n3)C2)CC1 [Compound 228]	< 100	< 100	–	–	500 to 5000	< 500
CN(C)C/C=C/C(=O)Nc1cnc(C(=O)N[C@H]2CCC[C@@H](Nc3ncc(Cl)c(-c4c[nH]c5ccccc45)n3)C2)nc1 [Compound 113, N-((1S,3R)-3-(5-chloro-4-(1H-indol-3-yl)pyrimidin-2-ylamino)cyclohexyl)-5-((E)-4-(dimethylamino)but-2-enamido)pyrimidine-2-carboxamide]	< 100	< 100	< 500	< 500	–	–
C=CC(=O)N1CCCC(C(=O)N[C@H]2CC[C@H](Nc3ncc(Cl)c(-c4c[nH]c5ccccc45)n3)CC2)C1 (some centres unmarked) [Compound 158, 1-acryloyl-N-((1r,4r)-4-(5-chloro-4-(1H-indol-3-yl)pyrimidin-2-ylamino)cyclohexyl)piperidine-3-carboxamide]	< 100	< 100	–	500 to 5000	–	–
C=CC(=O)Nc1cnc(C(=O)N[C@H]2CCC[C@@H](Nc3ncc(Cl)c(-c4c[nH]c5ccccc45)n3)C2)nc1 [Compound 112, 5-acrylamido-N-((1S,3R)-3-(5-chloro-4-(1H-indol-3-yl)pyrimidin-2-ylamino)cyclohexyl)pyrimidine-2-carboxamide]	100 to 1000	< 100	< 500	> 5000	–	–
C=CC(=O)N1CCC2(CC1)CN([C@H]1CCC[C@@H](Nc3ncc(Cl)c(-c4c[nH]c5ccccc45)n3)C1)C(=O)O2 [Compound 186]	< 100	< 100	–	–	500 to 5000	< 500
C=CC(=O)N1CCC[C@@H](C(=O)N[C@H]2CCC[C@@H](Nc3ncc(Cl)c(-c4c[nH]c5ccccc45)n3)C2)C1 [Compound 174, (R)-1-acryloyl-N-((1S,3R)-3-(5-chloro-4-(1H-indol-3-yl)pyrimidin-2-ylamino)cyclohexyl)piperidine-3-carboxamide]	< 100	< 100	< 500	< 500	–	–
C=CC(=O)N1CCN([C@H]2CCC[C@@H](Nc3ncc(Cl)c(-c4c[nH]c5ccccc45)n3)C2)CC1 [Compound 168, 1-(4-((1S,3R)-3-(5-chloro-4-(1H-indol-3-yl)pyrimidin-2-ylamino)cyclohexyl)piperazin-1-yl)prop-2-en-1-One]	< 100	< 100	< 500	–	–	–
C=CC(=O)N1CCC(CN[C@H]2CCC[C@@H](Nc3ncc(Cl)c(-c4c[nH]c5ccccc45)n3)C2)CC1 [Compound 124, 1-(4-(((1S,3R)-3-(5-chloro-4-(1H-indol-3-yl)pyrimidin-2-ylamino)cyclohexylamino)methyl)piperidin-1-yl)prop-2-en-1-One]	< 100	< 100	–	> 5000	–	–
CCc1cnc(N[C@@H]2CCC[C@](C)(NC(=O)c3ccc(NC(=O)/C=C/CN(C)C)cn3)C2)nc1-c1c(C)[nH]c2ccccc12 [Compound 412, 5-[[(E)-4-(dimethylamino)but-2-enoyl]amino]-N-[(1S,3R)-3-[[5-ethyl-4-(2-methyl-1H-indol-3-yl)pyrimidin-2-yl]amino]-1-methyl-cyclohexyl]pyridine-2-carboxamide]	100 to 1000	–	< 500	–	–	–
C=CC(=O)N1CCC[C@@H](NCc2ccc(Nc3ncc(Cl)c(-c4c[nH]c5ccccc45)n3)cc2)C1 [compound 393]	< 100	–	–	–	–	< 500
CN(C)C/C=C/C(=O)Nc1ccc(C(=O)N[C@H]2CCC[C@@H](Nc3ncc(C(F)(F)F)c(-c4c[nH]c5ccccc45)n3)C2)nc1 [Compound 248, N-((1S,3R)-3-((4-(1H-indol-3-yl)-5-(trifluoromethyl)pyrimidin-2-yl)amino)cyclohexyl)-5-((E)-4-(dimethylamino)but-2-enamido)picolinamide]	< 100	< 100	< 500	–	–	–
CCc1cnc(N[C@@H]2CCC[C@](C)(NC(=O)c3ccc(NC(=O)/C=C/CN(C)C)cn3)C2)nc1-c1c[nH]c2ccccc12 [Compound 407, 5-[[(E)-4-(dimethylamino)but-2-enoyl]amino]-N-[(1S,3R)-3-[[5-ethyl-4-(1H-indol-3-yl)pyrimidin-2-yl]amino]-1-methyl-cyclohexyl]pyridine-2-carboxamide]	< 100	–	< 500	–	–	–
C=CC(=O)Nc1ccc(CN[C@H]2CCC[C@@H](Nc3ncc(Cl)c(-c4c[nH]c5ccccc45)n3)C2)nc1 [Compound 258]	< 100	–	< 500	–	–	–
CCc1cnc(N[C@@H]2CCC[C@](C)(NCc3ccc(NC(=O)/C=C/CN(C)C)cn3)C2)nc1-c1n[nH]c2ccccc12 [Compound 413, (E)-4-(dimethylamino)-N-[6-[[[(1S,3R)-3-[[5-ethyl-4-(1H-indazol-3-yl)pyrimidin-2-yl]amino]-1-methyl-cyclohexyl]amino]methyl]-3-pyridyl]but-2-enamide]	< 100	–	< 500	–	–	–
